From US20100035848A1, “THERAPY FOR DISORDERS OF THE PROXIMAL DIGESTIVE TRACT” (priority 2008, published 2010)

System: LPS-induced NF-κB-dependent transcription
Assay: Luciferase assay of organs extracted from LPS-treated NF-κB::Luc mice
Format: in vivo, mouse
Description: For luciferase assays, organs were extracted and snap-frozen in liquid nitrogen. All tissue samples were placed in lysis buffer with inhibitors (Passive Lysis Buffer (Promega) and Complete Mini Protease Inhibitor Cocktail (Roche, Indianapolis, Ind.)), and were homogenized using a Handishear hand-held tissue homogenizer (VirTis, Gardiner, N.Y.). Tissue homogenates were centrifuged and clarified lysates were used for luminometer assays and western blots. For the luminometer assays, Luciferase Assay Substrate (Luciferase Assay System, Promega) was prepared as indicated by the manufacturer and placed in disposable cuvettes. […] Background luminescence readings were obtained and the background readings were subtracted from the luminescent data. Protein concentrations were determined using the BCA Protein Assay Kit (Pierce, Rockford, Ill.) following the manufacturer's protocols and analyzed using a VERSAmax tunable microplate reader and associated Softmax Pro version 3.1.2 software (Molecular Devices, Sunnyvale Calif.). The luminescence for each of the protein lysates was calculated as arbitrary units of light per microgram of protein. […]
GL1001 was further tested for in vivo anti-inflammatory activity by examining its effects on bacterial LPS-induced NF-κB dependent transcription in NF-κB::Luc mice. […] Luciferase signal was quantitated from several regions of interest. […]

CC(C)C[C@H](N[C@@H](Cc1cncn1Cc1cc(Cl)cc(Cl)c1)C(=O)O)C(=O)O [GL1001, (S,S)-2-[1-carboxy-2-[3-(3,5-dichlorobenzyl)-3H-imidazol-4-yl]-ethylamino]-4-methylpentanoic acid]
reduction of LPS-induced NF-κB-dependent transcription in stomachs (0.5 mg/kg LPS and GL1001 30 mg/kg vs LPS alone, FIG. 5): about 37 fold | decrease in LPS-induced NF-κB signaling in other organs (0.5 mg/kg LPS and GL1001 30 mg/kg, pancreas, uterus, liver, kidney, spleen, small and large intestine, lymph nodes, cecum, ovary, brain, heart, lung): no statistically significant decrease
